Laboratory results: article PMC10424186 (Journal of Medicinal Chemistry, 2023)
Where two headings read alike, the source gives them in different places.

Tests used:
A549 cells [1] = assay: Cell-cycle analysis (propidium iodide, FACS); assay type: cell-based; conditions: 1.0 μM, 24 h
Protocol: (§1) (a) U2OS bone osteosarcoma, (b) A549 lung adenocarcinoma, and (c) PC3 prostate adenocarcinoma cells were treated with the indicated doses of 19i and 19j (1.0, 5.0, 10, 50, and 100 μM) for 72 h and then tested for viability using the 3-(4,5-dimethylthiazol-2-yl)-5-(3-carboxymethoxyphenyl)-2-(4-sulfophenyl)-2H-tetrazolium (MTS) assay. A549 cells were treated with 19i or 19j (1.0 μM) for 24 h, then stained with (d) propidium iodide and analyzed by FACS or (e) DAPI staining for nuclei (left) and anti-53BP1 (for 53BP1 bodies, right). Cells were counted for 53BP1 bodies (f) and micronuclei (g). Data represent mean ± SEM from three (a–d) or four (f–g) independent replicates. For 53BP1 bodies, a minimum of 300 cells were counted per sample. For micronuclei, a minimum of 500 cells were counted per sample. Statistical analyses used one-way ANOVA with Tukey’s post hoc test [with p-value ≤ 0.01 (**)].
(§2) Because JMJD5 RNA interference has been associated with disturbances in the cell cycle,[1],[2],[81],[82] we measured phase distribution by flow cytometry in A549 cells (Figure 6d). Treatment with 19i or 19j for 24 h caused a reduction in G1-phase cells, with a corresponding increase in S- and G2/M-phase cells. […] We have recently reported that JMJD5 loss of function induces replication stress,[14] which is defined as a perturbation that slows or stalls DNA replication.[83] Unresolved replication stress can be measured by an increase in G1-phase 53BP1 “bodies” and micronuclei (Figure 6e), which are extranuclear DNA bodies that result from DNA cleavage and genome instability following replication stress.
Cell-cycle analyses were performed using A549 cells fixed in ice-cold 70%v/v ethanol. Cells were incubated with 100 μg/mL RNase A (Thermo Fisher Scientific), stained with 20 μg/mL propidium iodide, and then analyzed using Beckman Coulter CytoFLEX S. Representative FACS profiles were generated using Beckman CytExpert software.

[2] = system: PC3 prostate adenocarcinoma cells; assay: MTS cell viability assay, PC3; assay type: cell-based; conditions: 1.0–100 μM, 72 h
Excerpt: (§3) A biochemical readout of JMJD5 arginine residue hydroxylase activity in cells is not available; we thus focused our studies on biological readouts previously linked to JMJD5 function in order to investigate cellular responses resulting from JMJD5 inhibitor treatment. JMJD5 loss of function by RNA interference is reported to affect tumor cell proliferation and viability;[16],[18],[20],[21] we therefore studied the effects of 19i and 19j on the growth of three different tumor cell lines.
as §1, with “Data represent mean ± SEM from three (a–d) or four (f–g) independent replicates.” left out, “Statistical analyses used one-way ANOVA with Tukey’s post hoc test [with p-value ≤ 0.01 (**)].” left out
(§4) Cell proliferation/viability was measured using MTS (CellTiter 96 Aqueous One 667 Solution Cell Proliferation Assay, Promega) and CyQUANT (Thermo Fisher) assays. […]

[3] = system: U2OS bone osteosarcoma cells; assay: CyQuant viability assay (DNA content), U2OS; assay type: cell-based; conditions: 1.0–100 μM, 72 h
Protocol: Cell proliferation/viability was measured using MTS (CellTiter 96 Aqueous One 667 Solution Cell Proliferation Assay, Promega) and CyQUANT (Thermo Fisher) assays. CellTiter 96 Aqueous MTS reagent (Promega) and phenazine methosulfate (Sigma-Aldrich) were dissolved in phosphate-buffered saline (PBS) according to the manufacturer’s protocol. The MTS working reagent was made according to the manufacturer’s protocol and added to each well containing the cells. Plates were incubated for 1 h at 37 °C under 5% CO2, protected from light, and then the absorbance was measured at 490 nm using an EnSpire Multimode plate reader (PerkinElmer). For the cyQUANT assay, the reagents were prepared according to the manufacturer’s protocol and added to the cells. The cells were incubated for 1 h at 37 °C under 5% CO2, protected from light; fluorescence was then measured with excitation at ∼485 nm and emission detection at ∼530 nm using an EnSpire Multimode plate reader.
viability of U2OS bone osteosarcoma cells.
derivatives 19i and 19j (1.0, 5.0, 10, 50, 100 μM) for 72 h and then tested for viability using the CyQuant assay,
which measures DNA content. Data represent mean ± SEM from independent experiments.
(1 picture or pasted object on this page, not shown here)

[4] = system: U2OS bone osteosarcoma cells; assay: MTS cell viability assay, U2OS; assay type: cell-based; conditions: for CC50: Homo sapiens
Excerpt: as §3
as §1, with “(**)]. […]” for “(**)].”
Cell proliferation/viability was measured using MTS (CellTiter 96 Aqueous One 667 Solution Cell Proliferation Assay, Promega) and CyQUANT (Thermo Fisher) assays. […] Plates were incubated for 1 h at 37 °C under 5% CO2, protected from light, and then the absorbance was measured at 490 nm using an EnSpire Multimode plate reader (PerkinElmer). […] The cells were incubated for 1 h at 37 °C under 5% CO2, protected from light; fluorescence was then measured with excitation at ∼485 nm and emission detection at ∼530 nm using an EnSpire Multimode plate reader.

[5] = system: A549 lung adenocarcinoma cells; assay: MTS cell viability assay, A549; assay type: cell-based; conditions: Homo sapiens, 72 h, read-out: half-maximum cytotoxicity concentration (CC50)
Excerpt: as §3
as §1, with “Data represent mean ± SEM from three (a–d) or four (f–g) independent replicates.” left out, “Statistical analyses used one-way ANOVA with Tukey’s post hoc test [with p-value ≤ 0.01 (**)].” left out
as §4

A549 cells [6] = assay: Replication stress: 53BP1 bodies and micronuclei (immunofluorescence/DAPI); assay type: cell-based; conditions: 1.0 μM, 24 h
Protocol: as §1, §2
Cells on coverslips were pre-extracted on ice for 5 min using a buffer containing 20 mM NaCl, 3 mM MgCl2, 300 mM sucrose, 10 mM PIPES, and 0.5%v/v Triton X-100 and fixed using 4%v/v paraformaldehyde (PFA) in PBS for 15 min at ambient temperature. Cells were then permeabilized in 0.1%v/v Triton X-100 in PBS at ambient temperature for 10 min and blocked in 1%w/v bovine serum albumin (BSA) in PBS for 1 h at ambient temperature. Coverslips were incubated with anti-53BP1 antibody (Bio-Techne, NB100-904V) diluted in 1%w/v BSA in PBS at ambient temperature for 1 h in the dark. Coverslips were then washed three times with cold 1%w/v BSA in PBS following incubation for 1 h with secondary antibodies (anti-mouse 555 nm A31570 or anti-rabbit 488 nm A11070, Thermo Fisher). The coverslips were washed three times with cold PBS and incubated for 10 min with 4′,6-diamidino-2-phenylindole (DAPI) (Invitrogen) to stain for nuclei. Prolong Gold Antifade Reagent (Cell Signaling Technology) was used to mount the coverslips onto microscope slides. Images were taken using 40× objective on a Leica DM6000 fluorescent microscope and processed with ImageJ.

PHD2 = target: T1, PHD2 (Homo sapiens, UniProt Q9GZT9); assay: SPE-MS PHD2 inhibition assay (HIF-1α CODD hydroxylation); assay type: biochemical; conditions: Table 2; PHD2 181–426 […], 5.0 μM HIF-1α CODD; n = 2, mean ± SD
T1 construct: His6-PHD2_181–426; made in house; host or cells: Escherichia coli
T1 sequence (Q9GZT9 181-426): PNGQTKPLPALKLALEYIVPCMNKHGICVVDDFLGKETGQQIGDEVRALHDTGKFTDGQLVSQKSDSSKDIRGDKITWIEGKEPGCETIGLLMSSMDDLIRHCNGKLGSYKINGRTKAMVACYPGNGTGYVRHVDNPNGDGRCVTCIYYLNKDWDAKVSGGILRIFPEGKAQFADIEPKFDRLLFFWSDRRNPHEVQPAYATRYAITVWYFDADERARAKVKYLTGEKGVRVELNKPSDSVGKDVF
Protocol: (§5) H3_1-15K9me3, histone 3 (H3), residues 1–15 with K9 of H3-bearing three methyl groups at the N^ε-position, K4 of H3 substituted by an alanine residue, and K14 of H3 by an isoleucine residue,[73] for KDM4E; and RPL27A, residues 31–49, for RIOX2 (Mina53).[44]
(§6) Cosubstrate/cofactor stock solutions [L-ascorbic acid/LAA: 50 mM in MQ-grade water; 2-oxoglutarate/2OG: 10 mM in MQ-grade water; ammonium iron(II) sulfate hexahydrate/FAS/(NH4)2Fe(SO4)2·6H2O: 400 mM in 20 mM HCl diluted to 1 mM in MQ-grade water] were freshly prepared from commercial solids (Sigma-Aldrich) on the day the assays were performed. The JMJD5,[42] PHD2,[70] FIH,[70] KDM4E,[72],[73] RIOX2,[44] and AspH[45] […] For JMJD5, PHD2, FIH, RIOX2, and AspH, substrate hydroxylation was monitored (+16 Da mass shift), while for the KDM4E substrate, demethylation was monitored (−14 Da mass shift) by SPE-MS.

FIH = target: T2, FIH (Homo sapiens, UniProt Q9NWT6); assay: SPE-MS FIH inhibition assay (HIF-1α CAD hydroxylation); assay type: biochemical; conditions: Table 2; His6-FIH 0.15 μM, 5.0 μM HIF-1α CAD; n = 2, mean ± SD
T2 construct: made in house; host or cells: Escherichia coli
T2 sequence (Q9NWT6 whole entry): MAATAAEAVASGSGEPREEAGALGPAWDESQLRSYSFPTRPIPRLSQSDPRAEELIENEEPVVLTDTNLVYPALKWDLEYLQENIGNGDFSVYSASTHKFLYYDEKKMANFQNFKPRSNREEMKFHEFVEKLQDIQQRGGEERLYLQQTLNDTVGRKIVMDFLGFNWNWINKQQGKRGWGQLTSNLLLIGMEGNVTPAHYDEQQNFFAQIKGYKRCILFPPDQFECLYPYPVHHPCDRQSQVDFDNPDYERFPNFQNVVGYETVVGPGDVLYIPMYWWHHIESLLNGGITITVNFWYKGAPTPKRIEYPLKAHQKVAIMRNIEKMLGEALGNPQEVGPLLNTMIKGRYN
Protocol: HIF-α CAD, residues 788–822, for FIH;[70]
Cosubstrate/cofactor stock solutions [L-ascorbic acid/LAA: 50 mM in MQ-grade water; 2-oxoglutarate/2OG: 10 mM in MQ-grade water; ammonium iron(II) sulfate hexahydrate/FAS/(NH4)2Fe(SO4)2·6H2O: 400 mM in 20 mM HCl diluted to 1 mM in MQ-grade water] were freshly prepared from commercial solids (Sigma-Aldrich) on the day the assays were performed. […] FIH,[70] […] SPE-MS inhibition assays were performed as described in the cited literature, using isolated recombinant human enzymes (His6-thioredoxin-JMJD5,[42] His6-PHD2_181–426,[70] His6-FIH,[70] His6-KDM4E,[72],[73] His6-RIOX2_26–465,[87],[88] and His6-AspH315–758[48],[80]) and synthetic peptide substrates (RPS6_128–148 for JMJD5;[42] HIF-α CODD558–574 for PHD2;[70] HIF-α CAD788–822 for FIH;[70] H3_1–15K9me3 for KDM4E;[73] RPL27A31–49 for RIOX2;[44],[71] and hFX-CP101–119 for AspH;[45],[48] see above). For JMJD5, PHD2, FIH, RIOX2, and AspH, substrate hydroxylation was monitored (+16 Da mass shift), while for the KDM4E substrate, demethylation was monitored (−14 Da mass shift) by SPE-MS.

AspH = target: T3, AspH (Homo sapiens, UniProt Q12797); assay: SPE-MS AspH inhibition assay (hFX-CP101–119 hydroxylation); assay type: biochemical; conditions: Table 2; His6-AspH315–758 0.05 μM, 1.0 μM hFX-CP101–119; n = 2, mean ± SD
T3 construct: N-terminally His6-tagged AspH315–758; made in house; host or cells: Escherichia coli
T3 sequence (Q12797 315-758): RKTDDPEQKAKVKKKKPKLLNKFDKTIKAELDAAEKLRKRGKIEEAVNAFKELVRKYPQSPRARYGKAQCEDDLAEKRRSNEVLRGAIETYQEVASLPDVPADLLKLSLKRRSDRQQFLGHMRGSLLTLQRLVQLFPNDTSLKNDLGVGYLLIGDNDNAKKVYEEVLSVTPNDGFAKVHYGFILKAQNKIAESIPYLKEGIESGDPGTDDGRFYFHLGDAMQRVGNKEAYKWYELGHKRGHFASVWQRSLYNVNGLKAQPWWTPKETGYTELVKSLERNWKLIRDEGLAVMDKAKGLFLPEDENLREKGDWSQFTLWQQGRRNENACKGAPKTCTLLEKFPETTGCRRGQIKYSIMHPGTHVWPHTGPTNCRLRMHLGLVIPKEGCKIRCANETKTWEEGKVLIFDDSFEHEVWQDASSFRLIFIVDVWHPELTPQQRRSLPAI
Protocol: as §5, §6

KDM4E = target: T4, KDM4E (Homo sapiens, UniProt B2RXH2); assay: SPE-MS KDM4E inhibition assay (demethylation of H3 1–15 K9me3); assay type: biochemical; conditions: Table 2, 10.0 μM H3 1–15 K9me3, n = 2, mean ± SD
T4 construct: made in house; host or cells: Escherichia coli
T4 sequence (B2RXH2 1-506): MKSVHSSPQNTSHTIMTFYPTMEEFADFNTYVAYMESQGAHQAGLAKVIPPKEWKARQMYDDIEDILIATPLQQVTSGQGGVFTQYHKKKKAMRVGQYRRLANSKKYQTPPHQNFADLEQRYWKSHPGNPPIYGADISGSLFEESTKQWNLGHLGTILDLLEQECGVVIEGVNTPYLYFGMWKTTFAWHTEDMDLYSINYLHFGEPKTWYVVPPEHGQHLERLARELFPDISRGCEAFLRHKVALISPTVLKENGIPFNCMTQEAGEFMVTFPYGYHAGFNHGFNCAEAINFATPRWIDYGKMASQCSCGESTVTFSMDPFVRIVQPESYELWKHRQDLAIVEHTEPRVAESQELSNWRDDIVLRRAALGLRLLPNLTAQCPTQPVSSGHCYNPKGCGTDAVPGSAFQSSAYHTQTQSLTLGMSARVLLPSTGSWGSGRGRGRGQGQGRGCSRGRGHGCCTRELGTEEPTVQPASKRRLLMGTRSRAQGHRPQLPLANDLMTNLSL
Protocol: as §5, §6

RIOX2 = target: T5, RIOX2 (Homo sapiens, UniProt Q8IUF8); assay: SPE-MS RIOX2 inhibition assay (RPL27A31–49 hydroxylation); assay type: biochemical; conditions: Table 2; His6-RIOX2 26–465 […], 5.0 μM RPL27A31–49; n = 2, mean ± SD
T5 construct: N-terminally His6-tagged RIOX2_26–465; made in house; host or cells: Escherichia coli
T5 sequence (Q8IUF8 26-465): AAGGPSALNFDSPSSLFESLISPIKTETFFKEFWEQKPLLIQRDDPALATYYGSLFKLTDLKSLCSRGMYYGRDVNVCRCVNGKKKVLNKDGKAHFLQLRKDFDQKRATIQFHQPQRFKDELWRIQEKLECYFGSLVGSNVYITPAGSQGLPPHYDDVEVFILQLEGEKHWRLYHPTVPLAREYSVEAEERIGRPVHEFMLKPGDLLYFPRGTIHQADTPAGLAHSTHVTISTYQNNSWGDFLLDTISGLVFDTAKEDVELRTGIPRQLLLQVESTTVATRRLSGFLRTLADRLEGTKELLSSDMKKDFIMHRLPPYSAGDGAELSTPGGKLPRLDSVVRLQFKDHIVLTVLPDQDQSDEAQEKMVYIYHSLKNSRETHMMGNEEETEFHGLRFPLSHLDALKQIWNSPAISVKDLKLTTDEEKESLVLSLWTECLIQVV
Protocol: Cosubstrate/cofactor stock solutions [L-ascorbic acid/LAA: 50 mM in MQ-grade water; 2-oxoglutarate/2OG: 10 mM in MQ-grade water; ammonium iron(II) sulfate hexahydrate/FAS/(NH4)2Fe(SO4)2·6H2O: 400 mM in 20 mM HCl diluted to 1 mM in MQ-grade water] were freshly prepared from commercial solids (Sigma-Aldrich) on the day the assays were performed. […] For JMJD5, PHD2, FIH, RIOX2, and AspH, substrate hydroxylation was monitored (+16 Da mass shift), while for the KDM4E substrate, demethylation was monitored (−14 Da mass shift) by SPE-MS.

Which results are given for `COC(=O)c1cc(C(=O)OC)c(NCc2ccccc2OC)cn1` [Compound 19i]?
G1-phase cells (A549 cells [1]): reduction; S- and G2/M-phase cells (A549 cells [1]): increase; Sub-G1-phase cell numbers (A549 cells [1]): increased; effect on cell growth (in words) [2]: did not significantly affect; viability (CyQuant, in words) [3]: reduced viability; effect on cell growth (in words) ([4]; 1.0–100 μM, 72 h, MTS): did not significantly affect; CC50 ([4]; supplementary CSV, read-out: CC50 U2OS cells): > 100 µM; CC50 [5]: 10.7 µM; 53BP1 bodies (A549 cells [6]): significantly induced; micronuclei (A549 cells [6]): significantly induced

Which G1-phase cells (A549 cells [1]) does the source give for `COC(=O)c1cc(C(=O)OC)c(NCc2ccccc2C2CC2)cn1` [Compound 19j] here?
The G1-phase cells was “reduction”.

What about the “S- and G2/M-phase cells” value (A549 cells [1]) of the same compound?
The value was “increase”.

What about the Sub-G1-phase cell numbers (A549 cells [1]) of the same compound?
Its Sub-G1-phase cell numbers is “increased”.

And the “viability (CyQuant, in words)” value [3]?
Its value is “reduced viability”.

What about the CC50 ([4]; 72 h, MTS, read-out: half-maximum cytotoxicity concentration (CC50)) of the same compound?
Its CC50 is 10 µM.

What about the CC50 [5] of the same compound?
The CC50 was 2.1 µM.

And the 53BP1 bodies (A549 cells [6])?
The 53BP1 bodies was “significantly induced”.

And the micronuclei (A549 cells [6])?
The micronuclei was “significantly induced”.

Which results are given for `O=C(O)c1cc(C(=O)O)c(NCc2ccccc2C2CC2)cn1` [Compound 20j, 5-((2-cyclopropylbenzyl)amino)pyridine-2,4-dicarboxylic acid]?
IC50 (PHD2): > 50 µM; IC50 (FIH): > 50 µM; IC50 (AspH): 8.9 ± 5 µM; IC50 (KDM4E): > 50 µM; IC50 (RIOX2): > 50 µM
